In assay [1] the target is T1, human CB-2 receptor (Homo sapiens, UniProt P34972).
T1 construct: expressed in transfected cells; host or cells: SK-N-MC cells, pcDNA3 CB-2 (human), semi-purified membranes
Briefly: Binding assay, cannabinoid CB2 receptor ([3H]-CP-55,940 displacement). Particulars: read-out: CB2 binding percent inhibition. In outline:
(§1)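 Displacement of 0.2 nM [3H]-CP-55,940 (non-specific: 10 uM WIN 55,212) was run on semi-purified membranes of transfected SK-N-MC cells carrying human CB-1 or CB-2, 90 min, 30° C, pH 7.5. Scintillation counting; IC50 by linear regression, else % inhibition at 0.2, 1 or 10 μM.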

In assay [2] the target is human CB1 receptor (Homo sapiens, UniProt P21554). As to the kind of experiment: Binding assay, cannabinoid CB1 receptor ([3H]-CP-55,940 displacement). Also on record: expressed in transfected cells; host or cells: SK-N-MC cells, pcDNA3 CB-1 (human), semi-purified membranes. Particulars: for inhibition at 0.2 µM: test concentration 0.2 μM (superscript a), read-out: CB1 binding percent inhibition. In a few lines: as §1
human CB1 receptor, sequence (P21554 whole entry): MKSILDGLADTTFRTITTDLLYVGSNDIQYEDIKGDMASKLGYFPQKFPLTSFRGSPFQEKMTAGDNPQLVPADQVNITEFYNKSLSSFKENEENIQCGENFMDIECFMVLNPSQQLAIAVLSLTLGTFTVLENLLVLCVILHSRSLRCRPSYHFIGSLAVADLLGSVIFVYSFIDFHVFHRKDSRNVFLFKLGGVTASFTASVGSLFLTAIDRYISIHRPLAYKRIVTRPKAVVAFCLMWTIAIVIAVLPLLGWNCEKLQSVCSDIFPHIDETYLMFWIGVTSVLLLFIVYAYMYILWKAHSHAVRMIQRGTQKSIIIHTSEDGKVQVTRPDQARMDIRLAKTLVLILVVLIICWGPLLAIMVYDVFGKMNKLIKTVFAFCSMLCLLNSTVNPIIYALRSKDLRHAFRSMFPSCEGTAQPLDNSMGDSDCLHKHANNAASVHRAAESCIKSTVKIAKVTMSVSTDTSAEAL

The mark [3] stands for this setting: test concentration 0.2 μM (superscript a).

Each structure is given as a SMILES string. Read-outs that look alike come from different tables or passages of the source.

T1 sequence (P34972 whole entry): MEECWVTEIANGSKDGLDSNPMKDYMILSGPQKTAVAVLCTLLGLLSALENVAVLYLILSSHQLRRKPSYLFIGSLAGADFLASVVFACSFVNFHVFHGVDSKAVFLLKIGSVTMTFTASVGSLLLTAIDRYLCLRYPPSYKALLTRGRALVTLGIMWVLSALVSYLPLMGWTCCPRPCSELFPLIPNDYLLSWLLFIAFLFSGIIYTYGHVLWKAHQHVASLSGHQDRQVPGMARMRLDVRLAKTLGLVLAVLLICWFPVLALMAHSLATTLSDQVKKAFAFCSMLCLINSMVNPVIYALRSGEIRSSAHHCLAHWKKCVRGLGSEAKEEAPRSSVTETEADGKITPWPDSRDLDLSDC

With `C[C@H](NC(=O)c1c2c(nn1-c1ccc(Cl)cc1Cl)/C(=C/c1ccc(F)cc1)CSC2)c1ccccc1` [Cpd 91, (7Z)-2-(2,4-dichloro-phenyl)-7-(4-fluoro-benzylidene)-2,4,6,7-tetrahydro-thiopyrano[4,3-c]pyrazole-3-carboxylic acid [(1S)-1-phenyl-ethyl]-amide], the values for the inhibition at 0.2 µM in assay [1] (setting [3]) and in assay [2] were 14% and 38%, respectively.
As for `O=C(NN1CC2CCCC2C1)c1c2c(nn1-c1ccc(Cl)cc1Cl)/C(=C/c1ccc(F)cc1)CSC2` (centres unmarked) [Cpd 92, (7Z)-2-(2,4-dichloro-phenyl)-7-(4-fluoro-benzylidene)-2,4,6,7-tetrahydro-thiopyrano[4,3-c]pyrazole-3-carboxylic acid (hexahydro-cyclopenta[c]pyrrol-2-yl)-amide], the inhibition (usually the drop in the measured response relative to a control, in per cent) at 0.2 µM in assay [1] (setting [3]) was 8%; in assay [2] it was 47%.
Turning to `O=C(NN1CCCCC1)c1nn(-c2ccc(Cl)cc2)c2c1CSC/C2=C\c1ccc(F)cc1` [Cpd 93, (7Z)-1-(4-chloro-phenyl)-7-(4-fluoro-benzylidene)-1,4,6,7-tetrahydro-thiopyrano[4,3-c]pyrazole-3-carboxylic acid piperidin-1-ylamide], the inhibition at 0.2 µM in assay [1] (setting [3]) amounted to 26%. The IC50 (usually the midpoint of a concentration-inhibition curve) in assay [2] turned out to be 36 nM.
In the case of `C[C@@H](NC(=O)c1nn(-c2ccc(Cl)cc2)c2c1CSC/C2=C\c1ccc(F)cc1)c1ccccc1` [Cpd 94, (7Z)-1-(4-chloro-phenyl)-7-(4-fluoro-benzylidene)-1,4,6,7-tetrahydro-thiopyrano[4,3-c]pyrazole-3-carboxylic acid [(1R)-1-phenyl-ethyl]-amide], in assay [1], the inhibition at 0.2 µM was 22%. The compound further showed an IC50 in assay [2] of 11 nM.
In the case of `C[C@@H](NC(=O)c1nn(-c2ccc(Cl)cc2)c2c1CS(=O)(=O)C/C2=C\c1ccc(F)cc1)c1ccccc1` [Cpd 95, (7Z)-1-(4-chloro-phenyl)-7-(4-fluoro-benzylidene)-5,5-dioxo-4,5,6,7-tetrahydro-1H-5λ^6-thiopyrano[4,3-c]pyrazole-3-carboxylic acid [(1R)-1-phenyl-ethyl]-amide], the inhibition at 0.2 µM in assay [1] came to 15%. Moreover, the IC50 in assay [2] came to 9 nM.
Take `O=C(NN1CCCCC1)c1nn(-c2ccc(Cl)cc2)c2c1C[S+]([O-])C/C2=C\c1ccc(F)cc1` (centres unmarked) [Cpd 96, (7Z)-1-(4-chloro-phenyl)-7-(4-fluoro-benzylidene)-5-oxo-4,5,6,7-tetrahydro-1H-5λ^4-thiopyrano[4,3-c]pyrazole-3-carboxylic acid piperidin-1-ylamide]: the inhibition at 0.2 µM came to 9% in assay [1] (setting [3]) and 43% in assay [2].
With `O=C(NN1CC2CCCC2C1)c1nn(-c2ccc(Cl)cc2)c2c1CS(=O)(=O)C/C2=C\c1ccc(F)cc1` (centres unmarked) [Cpd 97, (7Z)-1-(4-chloro-phenyl)-7-(4-fluoro-benzylidene)-5,5-dioxo-4,5,6,7-tetrahydro-1H-5λ^6-thiopyrano[4,3-c]pyrazole-3-carboxylic acid (hexahydro-cyclopenta[c]pyrrol-2-yl)-amide], the inhibition at 0.2 µM in assay [1] (setting [3]) amounted to 8%. In assay [2], this compound displayed an IC50 of 68 nM.
Take `O=C(c1nn(-c2ccc(Cl)cc2)c2c1CS(=O)(=O)C/C2=C\c1ccc(F)cc1)N1CCCCC1` [Cpd 98, (7Z)-[1-(4-chloro-phenyl)-7-(4-fluoro-benzylidene)-5,5-dioxo-4,5,6,7-tetrahydro-1H-5λ^6-thiopyrano[4,3-c]pyrazol-3-yl]-piperidin-1-yl-methanone]: the figures for the inhibition at 0.2 µM in assay [1] (setting [3]) and in assay [2] were 14% and 51%, respectively.
Turning to `O=C(NN1CCCCC1)c1nn(-c2ccc(Cl)cc2)c2c1CS(=O)(=O)C/C2=C\c1ccc(F)cc1` [Cpd 99, (7Z)-1-(4-chloro-phenyl)-7-(4-fluoro-benzylidene)-5,5-dioxo-4,5,6,7-tetrahydro-1H-5λ^6-thiopyrano[4,3-c]pyrazole-3-carboxylic acid piperidin-1-ylamide], the inhibition at 0.2 µM in assay [1] (setting [3]) stood at 12%; in assay [2], 66%.
Regarding `CN(NC(=O)c1nn(-c2ccc(Cl)cc2)c2c1CS(=O)(=O)C/C2=C\c1ccc(F)cc1)c1ccccc1` [Cpd 100, (7Z)-1-(4-chloro-phenyl)-7-(4-fluoro-benzylidene)-5,5-dioxo-4,5,6,7-tetrahydro-1H-5λ^6-thiopyrano[4,3-c]pyrazole-3-carboxylic acid N′-methyl-N′-phenyl-hydrazide], in assay [1], the inhibition at 0.2 µM turned out to be 9%. The IC50 in assay [2] was 25 nM.
For the compound `O=C(c1nn(-c2ccc(Cl)cc2Cl)c2c1CS(=O)(=O)C/C2=C\c1ccc(F)cc1)N1CCCCC1` [Cpd 101, (7Z)-[1-(2,4-dichloro-phenyl)-7-(4-fluoro-benzylidene)-5,5-dioxo-4,5,6,7-tetrahydro-1H-5λ^6-thiopyrano[4,3-c]pyrazol-3-yl]-piperidin-1-yl-methanone], the inhibition at 0.2 µM in assay [1] (setting [3]) amounted to 24%; in assay [2] it was 61%.
With `O=C(NN1CCCC1)c1nn(-c2ccc(Cl)cc2)c2c1CSC/C2=C\c1ccc(F)cc1` [Cpd 102, (7Z)-1-(4-chloro-phenyl)-7-(4-fluoro-benzylidene)-1,4,6,7-tetrahydro-thiopyrano[4,3-c]pyrazole-3-carboxylic acid pyrrolidin-1-ylamide], the figures for the inhibition at 0.2 µM in assay [1] (setting [3]) and in assay [2] were 23% and 76%, respectively.
On to `O=C(NN1CC2CCCC2C1)c1nn(-c2ccc(Cl)cc2)c2c1CSC/C2=C\c1ccc(F)cc1` (centres unmarked) [Cpd 103, (7Z)-1-(4-chloro-phenyl)-7-(4-fluoro-benzylidene)-1,4,6,7-tetrahydro-thiopyrano[4,3-c]pyrazole-3-carboxylic acid (hexahydro-cyclopenta[c]pyrrol-2-yl)-amide], for which the inhibition at 0.2 µM in assay [1] (setting [3]) stood at 5%; in assay [2], 62%.
As to `O=C(NN1CC2CCCC2C1)c1nn(-c2ccc(Cl)cc2Cl)c2c1CS(=O)(=O)C/C2=C\c1ccc(F)cc1` (centres unmarked) [Cpd 104, (7Z)-1-(2,4-dichloro-phenyl)-7-(4-fluoro-benzylidene)-5,5-dioxo-4,5,6,7-tetrahydro-1H-5λ^6-thiopyrano[4,3-c]pyrazole-3-carboxylic acid (hexahydro-cyclopenta[c]pyrrol-2-yl)-amide], the figures for the inhibition at 0.2 µM in assay [1] (setting [3]) and in assay [2] were 10% and 76%, respectively.
In the case of `O=C(NN1CC2CCCC2C1)c1nn(-c2ccc(F)cc2F)c2c1CS(=O)(=O)C/C2=C\c1ccc(F)cc1` (centres unmarked) [Cpd 105, (7Z)-1-(2,4-difluoro-phenyl)-7-(4-fluoro-benzylidene)-5,5-dioxo-4,5,6,7-tetrahydro-1H-5λ^6-thiopyrano[4,3-c]pyrazole-3-carboxylic acid (hexahydro-cyclopenta[c]pyrrol-2-yl)-amide], the inhibition at 0.2 µM in assay [1] (setting [3]) was found to be 11%; in assay [2] it was 50%.
The matching figures for `O=C(NN1CCCCC1)c1nn(-c2ccc(F)cc2F)c2c1CS(=O)(=O)C/C2=C\c1ccc(F)cc1` [Cpd 106, (7Z)-1-(2,4-difluoro-phenyl)-7-(4-fluoro-benzylidene)-5,5-dioxo-4,5,6,7-tetrahydro-1H-5λ^6-thiopyrano[4,3-c]pyrazole-3-carboxylic acid piperidin-1-ylamide]: 6% and 32%.
In the case of `O=C(NN1CCCCCC1)c1nn(-c2ccc(Cl)cc2Cl)c2c1CS(=O)(=O)C/C2=C\c1ccc(F)cc1` [Cpd 107, (7Z)-1-(2,4-dichloro-phenyl)-7-(4-fluoro-benzylidene)-5,5-dioxo-4,5,6,7-tetrahydro-1H-5λ^6-thiopyrano[4,3-c]pyrazole-3-carboxylic acid azepan-1-ylamide], the figures for the inhibition at 0.2 µM in assay [1] (setting [3]) and in assay [2] were 23% and 92%, respectively.
As for `CC1CCCC(C)N1NC(=O)c1nn(-c2ccc(Cl)cc2Cl)c2c1CS(=O)(=O)C/C2=C\c1ccc(F)cc1` (centres unmarked) [Cpd 108, (7Z)-1-(2,4-dichloro-phenyl)-7-(4-fluoro-benzylidene)-5,5-dioxo-4,5,6,7-tetrahydro-1H-5λ^6-thiopyrano[4,3-c]pyrazole-3-carboxylic acid (2,6-dimethyl-piperidin-1-yl)-amide], the inhibition at 0.2 µM in assay [1] (setting [3]) worked out at 18%; in assay [2], 88%.
The matching figures for `CN1CCN(NC(=O)c2nn(-c3ccc(Cl)cc3Cl)c3c2CS(=O)(=O)C/C3=C\c2ccc(F)cc2)CC1` [Cpd 109, (7Z)-1-(2,4-dichloro-phenyl)-7-(4-fluoro-benzylidene)-5,5-dioxo-4,5,6,7-tetrahydro-1H-5λ^6-thiopyrano[4,3-c]pyrazole-3-carboxylic acid (4-methyl-piperazin-1-yl)-amide]: 6% and 4%.
As for `O=C(NN1CCN(CCO)CC1)c1nn(-c2ccc(Cl)cc2Cl)c2c1CS(=O)(=O)C/C2=C\c1ccc(F)cc1` [Cpd 110, (7Z)-1-(2,4-dichloro-phenyl)-7-(4-fluoro-benzylidene)-5,5-dioxo-4,5,6,7-tetrahydro-1H-5λ^6-thiopyrano[4,3-c]pyrazole-3-carboxylic acid [4-(2-hydroxy-ethyl)-piperazin-1-yl]-amide], the results for the inhibition at 0.2 µM in assay [1] (setting [3]) and in assay [2] were 7% and 13%, respectively.
On to `CC1CCCC(C)N1NC(=O)c1nn(-c2ccc(Cl)cc2Cl)c2c1CSC/C2=C\c1ccc(F)cc1` (centres unmarked) [Cpd 111, (7Z)-1-(2,4-dichloro-phenyl)-7-(4-fluoro-benzylidene)-1,4,6,7-tetrahydro-thiopyrano[4,3-c]pyrazole-3-carboxylic acid (2,6-dimethyl-piperidin-1-yl)-amide], for which the inhibition at 0.2 µM in assay [1] (setting [3]) worked out at 16%. Besides, the IC50 in assay [2] came to 14 nM.
For the compound `O=C(NN1CCCCCC1)c1nn(-c2ccc(Cl)cc2Cl)c2c1CSC/C2=C\c1ccc(F)cc1` [Cpd 112, (7Z)-1-(2,4-dichloro-phenyl)-7-(4-fluoro-benzylidene)-1,4,6,7-tetrahydro-thiopyrano[4,3-c]pyrazole-3-carboxylic acid azepan-1-ylamide], the inhibition at 0.2 µM in assay [1] (setting [3]) was 8%. In assay [2], this compound yielded an IC50 of 10 nM.

The record behind these values is patent US7524964B2, “Tetrahydrothiopyrano pyrazole cannabinoid modulators” (Janssen Pharmaceutica NV, priority 2005, dated 2009).
